In one experiment the test system is MRSA. Briefly: In vitro activity (MIC) against MRSA strains collected in 2005. It counts as cell-based, Staphylococcus aureus. The settings on record: for % resistance / % susceptible: CLSI (2007) criteria.
Experiment [1] concerns susceptible Staphylococcus aureus (MSSA). Briefly: In vitro activity (MIC) against susceptible Staphylococcus aureus (MSSA) strains collected in 2005. The class given is cell-based. The settings on record: for % resistance / % susceptible: CLSI (2007) criteria.
The next experiment concerns C. difficle. As to the kind of experiment: In vitro activity (MIC) against 25 clinical strains of C. difficile. The class given is cell-based. The settings on record: for MIC50 / MIC90: Clostridioides difficile.
[2] abbreviates: North America 2005, 1,158 strains.
[3] abbreviates: North America and Europe 2005, 1,644 strains.
The mark [4] stands for this setting: Staphylococcus aureus, MRSA, North America 2005, 1,158 strains, read-out: MIC90.
The mark [5] stands for this setting: Staphylococcus aureus, MRSA, North America and Europe 2005, 1,644 strains, read-out: MIC50.
Where [6] appears, read: Staphylococcus aureus, MRSA, North America and Europe 2005, 1,644 strains, read-out: MIC90.
The mark [7] stands for this setting: North America 2005, 1,232 strains.
[8] abbreviates: North America and Europe 2005, 2,276 strains.
Setting [9] is: Staphylococcus aureus, MSSA, North America and Europe 2005, 2,276 strains, read-out: MIC50.
[10] abbreviates: Staphylococcus aureus, MSSA, North America and Europe 2005, 2,276 strains, read-out: MIC90.

Each structure is given as a SMILES string. Converted amounts (≈) assume the structure as drawn. Like-named read-outs stand apart in the source and are kept apart here.

Broadly, the MIC50 is the lowest concentration that inhibits either 50% of growth or 50% of the strains tested, depending on the study. As usually defined, the MIC90 is the lowest concentration that inhibits either 90% of growth or 90% of the strains tested, depending on the study.

As for `CCC[C@@H]1C[C@@H](C(=O)N[C@@H]([C@H]2O[C@H](SC)[C@H](O)[C@@H](O)[C@H]2O)[C@H](C)Cl)N(C)C1` [Clindamycin], the MIC50 entry in the experiment on MRSA (setting [2]) was “≦0.25 μg/ml”; with MRSA (setting [5]), no more than 0.25 µg/mL; in experiment [1] (Europe 2005, 1,044 strains), “≦0.25 μg/ml”; in experiment [1] (setting [7]), “≦0.25 μg/ml”; in experiment [1] (setting [9]) it was no more than 0.25 µg/mL. Further, the “% resistance” value with MRSA (setting [2]) is listed as 44.3%; with MRSA (setting [3]) it was 45.3%; in experiment [1] (Europe 2005, 1,044 strains), 3.2%; in experiment [1] (setting [7]) it was 4.8%; in experiment [1] (setting [8]) it was 4.0%. Also, the “% susceptible” value with MRSA (setting [2]) was determined as 55.5%; with MRSA (setting [3]) it was 54.6%; in experiment [1] (Europe 2005, 1,044 strains) it was 96.6%; in experiment [1] (setting [7]), 95.0%; in experiment [1] (setting [8]) it was 95.7%. Besides, the MIC90 in the experiment with MRSA (setting [4]) was greater than 2 µg/mL; in the experiment on MRSA (setting [6]) it was greater than 2 µg/mL; in experiment [1] (Europe 2005, 1,044 strains), “≦0.25 μg/ml”; in experiment [1] (setting [7]), “≦0.25 μg/ml”; in experiment [1] (setting [10]), no more than 0.25 µg/mL.

`CN[C@H](CC(C)C)C(=O)N[C@H]1C(=O)N[C@@H](CC(N)=O)C(=O)N[C@H]2C(=O)N[C@H]3C(=O)N[C@H](C(=O)N[C@H](C(=O)O)c4cc(O)cc(O)c4-c4cc3ccc4O)[C@H](O)c3ccc(c(Cl)c3)Oc3cc2cc(c3O[C@@H]2O[C@H](CO)[C@@H](O)[C@H](O)[C@H]2O[C@H]2C[C@](C)(N)[C@H](O)[C@H](C)O2)Oc2ccc(cc2Cl)[C@H]1O` [Vancomycin]: the MIC50 in the experiment with MRSA (setting [2]) came out at 1 µg/mL (≈ 0.69 µM); in the experiment on MRSA (setting [5]), 1 µg/mL (≈ 0.69 µM); in experiment [1] (Europe 2005, 1,044 strains), 1 µg/mL (≈ 0.69 µM); in experiment [1] (setting [7]), 1 µg/mL (≈ 0.69 µM); in experiment [1] (setting [9]), 1 µg/mL (≈ 0.69 µM). Besides, the MIC90 was found to be 1 µg/mL (≈ 0.69 µM) in the experiment on MRSA (setting [2]); 1 µg/mL (≈ 0.69 µM) in the experiment on MRSA (setting [6]); 1 µg/mL (≈ 0.69 µM) in experiment [1] (Europe 2005, 1,044 strains); 1 µg/mL (≈ 0.69 µM) in experiment [1] (setting [7]); 1 µg/mL (≈ 0.69 µM) in experiment [1] (setting [10]). Also, the “% resistance” value with MRSA (setting [2]) stood at 0.0%; with MRSA (setting [3]), 0.0%; in experiment [1] (Europe 2005, 1,044 strains) it was 0.0%; in experiment [1] (setting [7]), 0.0%; in experiment [1] (setting [8]), 0.0%. Besides, the “% susceptible” value with MRSA (setting [2]) was 100%; in the experiment with MRSA (setting [3]), 100%; in experiment [1] (Europe 2005, 1,044 strains), 100%; in experiment [1] (setting [7]), 100%; in experiment [1] (setting [8]) it was 100%. In addition, the “Range (MIC)” value in experiment [1] (Europe 2005, 1,044 strains) is recorded as “≦0.12-2”; in experiment [1] (setting [7]), “≦0.25-2”; in experiment [1] (setting [8]), “≦0.12-2”.

In the case of `O=C(N[C@H](CO)[C@H](O)c1ccc([N+](=O)[O-])cc1)C(Cl)Cl` [chloramphenicol, Chloramphenicol], the MIC50 in the experiment on MRSA (setting [2]) was found to be 8 µg/mL (≈ 24.8 µM); in the experiment on MRSA (setting [5]), 8 µg/mL (≈ 24.8 µM); with C. difficle (25 clinical strains, read-out: MIC50), 4 µM (≈ 1.29 µg/mL); in experiment [1] (Europe 2005, 1,044 strains), 8 µg/mL (≈ 24.8 µM); in experiment [1] (setting [7]), 8 µg/mL (≈ 24.8 µM); in experiment [1] (setting [9]) it was 8 µg/mL (≈ 24.8 µM). Also, the “% resistance” value is given as 0.4% with MRSA (setting [2]); 1.9% with MRSA (setting [3]); 1.4% in experiment [1] (Europe 2005, 1,044 strains); 0.0% in experiment [1] (setting [7]); 0.7% in experiment [1] (setting [8]). In addition, the “% susceptible” value with MRSA (setting [2]) came out at 92.3%; with MRSA (setting [3]), 91.5%; in the experiment on C. difficle (25 clinical strains) it was 88.0%; in experiment [1] (Europe 2005, 1,044 strains), 98.4%; in experiment [1] (setting [7]), 99.4%; in experiment [1] (setting [8]) it was 98.9%. In addition, the MIC90 in the experiment on MRSA (setting [4]) is 8 µg/mL (≈ 24.8 µM); with MRSA (setting [6]) it was 8 µg/mL (≈ 24.8 µM); with C. difficle (25 clinical strains, read-out: MIC90), 16 µM (≈ 5.17 µg/mL); in experiment [1] (Europe 2005, 1,044 strains) it was 8 µg/mL (≈ 24.8 µM); in experiment [1] (setting [7]) it was 8 µg/mL (≈ 24.8 µM); in experiment [1] (setting [10]), 8 µg/mL (≈ 24.8 µM). Moreover, the “% resistant” value with C. difficle (25 clinical strains) came out at 8.0%.

Consider `Cc1ncc([N+](=O)[O-])n1CCO` [Metronidazole], for which, in the experiment with C. difficle (25 clinical strains), the “% resistant” value was determined as 00% and the “% susceptible” value is reported as 100%. In the experiment on C. difficle, this molecule registered an MIC50 of 0.25 µM (≈ 0.0428 µg/mL) and an MIC90 of 0.5 µM (≈ 0.0856 µg/mL).

Take `CC[C@H]1OC(=O)[C@H](C)[C@@H](O[C@H]2C[C@@](C)(OC)[C@@H](O)[C@H](C)O2)[C@H](C)[C@@H](O[C@@H]2O[C@H](C)C[C@H](N(C)C)[C@H]2O)[C@](C)(O)C[C@@H](C)C(=O)[C@H](C)[C@@H](O)[C@]1(C)O` [Erythromycin]: the MIC50 in the experiment with MRSA (setting [2]) and in the experiment with MRSA (setting [5]) was greater than 8 µg/mL throughout. For the same molecule, the “% resistance” value in the experiment on MRSA (setting [2]) turned out to be 94.8%; in the experiment with MRSA (setting [3]), 89.2%; in experiment [1] (Europe 2005, 1,044 strains) it was 13.3%; in experiment [1] (setting [7]), 28.0%; in experiment [1] (setting [8]), 21.3%. Besides, the “% susceptible” value turned out to be 4.8% in the experiment on MRSA (setting [2]); 10.2% in the experiment on MRSA (setting [3]); 86.2% in experiment [1] (Europe 2005, 1,044 strains); 70.8% in experiment [1] (setting [7]); 77.9% in experiment [1] (setting [8]). Also, the MIC90 was greater than 8 µg/mL in the experiment on MRSA (setting [4]); greater than 8 µg/mL in the experiment on MRSA (setting [6]); greater than 8 µg/mL in experiment [1] (Europe 2005, 1,044 strains); greater than 8 µg/mL in experiment [1] (setting [7]); greater than 8 µg/mL in experiment [1] (setting [10]).

With `CN(C)[C@@H]1C(O)=C(C(N)=O)C(=O)[C@@]2(O)C(O)=C3C(=O)c4c(O)cccc4[C@@](C)(O)[C@H]3C[C@@H]12` [Tetracycline], the MIC50 entry was “≦2 μg/ml” in the experiment with MRSA (setting [2]); no more than 2 µg/mL in the experiment on MRSA (setting [5]); “≦2 μg/ml” in experiment [1] (Europe 2005, 1,044 strains); “≦2 μg/ml” in experiment [1] (setting [7]); no more than 2 µg/mL in experiment [1] (setting [9]). Besides, the “% resistance” value in the experiment with MRSA (setting [2]) came out at 7.0%; in the experiment with MRSA (setting [3]), 10.3%; in experiment [1] (Europe 2005, 1,044 strains) it was 6.5%; in experiment [1] (setting [7]), 2.7%; in experiment [1] (setting [8]) it was 4.4%. Further, the “% susceptible” value in the experiment on MRSA (setting [2]) was found to be 92.5%; in the experiment on MRSA (setting [3]), 88.8%; in experiment [1] (Europe 2005, 1,044 strains), 93.3%; in experiment [1] (setting [7]) it was 96.8%; in experiment [1] (setting [8]), 95.2%. In addition, the MIC90 was no more than 2 µg/mL with MRSA (setting [4]); greater than 8 µg/mL in the experiment on MRSA (setting [6]); “≦2 μg/ml” in experiment [1] (Europe 2005, 1,044 strains); “≦2 μg/ml” in experiment [1] (setting [7]); no more than 2 µg/mL in experiment [1] (setting [10]).

For the molecule `C[C@H]1COc2c(N3CCN(C)CC3)c(F)cc3c(=O)c(C(=O)O)cn1c23` [Levofloxacin], the MIC50 against MRSA (setting [2]) is greater than 4 µg/mL; in the experiment with MRSA (setting [5]), greater than 4 µg/mL; in experiment [1] (Europe 2005, 1,044 strains) it was “≦0.5 μg/ml”; in experiment [1] (setting [7]) it was “≦0.5 μg/ml”; in experiment [1] (setting [9]) it was no more than 0.5 µg/mL. In addition, the “% resistance” value in the experiment with MRSA (setting [2]) is 71.7%; in the experiment with MRSA (setting [3]) it was 77.4%; in experiment [1] (Europe 2005, 1,044 strains) it was 6.8%; in experiment [1] (setting [7]) it was 6.6%; in experiment [1] (setting [8]), 6.7%. For the same molecule, the “% susceptible” value in the experiment with MRSA (setting [2]) is reported as 26.4%; in the experiment on MRSA (setting [3]), 20.6%; in experiment [1] (Europe 2005, 1,044 strains), 93.0%; in experiment [1] (setting [7]) it was 93.0%; in experiment [1] (setting [8]), 93.0%. Also, the MIC90 with MRSA (setting [4]) was greater than 4 µg/mL; with MRSA (setting [6]), greater than 4 µg/mL; in experiment [1] (Europe 2005, 1,044 strains), “≦0.5 μg/ml”; in experiment [1] (setting [7]), “≦0.5 μg/ml”; in experiment [1] (setting [10]), no more than 0.5 µg/mL.
